Tests used:
Punta Toro virus = format: functional; conditions: Vero
[1] = Cytotoxicity against human HeLa cells assessed as alteration of normal cell morphology by microscopic analysis; format: cell-based
Human alphaherpesvirus 2 = format: functional, cell-based; conditions: Human alphaherpesvirus 2, G, HEL
[2] = system: Mammalian orthoreovirus 1; format: functional; conditions: Mammalian orthoreovirus 1, Vero
[3] = Cytotoxicity against MDCK cells assessed as alteration of normal cell morphology by microscopic analysis; format: cell-based, Canis lupus familiaris; conditions: dog
Human alphaherpesvirus 1 [4] = format: functional, cell-based; conditions: Human alphaherpesvirus 1, KOS, HEL
HeLa = assay: Cytotoxicity against human HeLa cells assessed as inhibition of cell proliferation by Coulter counter analysis; format: cell-based
CCRF-CEM = assay: Cytotoxicity against human CEM cells assessed as inhibition of cell proliferation by Coulter counter analysis; format: cell-based
Human alphaherpesvirus 3 [5] = format: functional, cell-based; conditions: Human alphaherpesvirus 3, strain Oka vaccine, HEL
L1210 = assay: Cytotoxicity against mouse L1210 cells assessed as inhibition of cell proliferation by Coulter counter analysis; format: cell-based
[6] = Cytotoxicity against MDCK cells assessed as inhibition of cell viability by colorimetric formazan-based MTS assay; design: species or system Canis lupus familiaris; conditions: dog
Coxsackievirus [7] = format: functional; conditions: B4, Vero
[8] = Selectivity index, ratio of IC50 for human HeLa cells to IC50 for chloroquine-resistant asexual intraerythrocytic stage of Plasmodium falciparum Dd2; format: toxicity, cell-based; conditions: read-out: Ratio IC50
Influenza A virus [9] = assay: microbe, parasite or virus in culture; conditions: H1N1, MDCK
[10] = Cytotoxicity against african green monkey Vero cells assessed as alteration of normal cell morphology by microscopic analysis; format: cell-based; conditions: chlorocebus sabaeus
[11] = Cytotoxicity against human HEL cells assessed as inhibition of cell viability by colorimetric formazan-based MTS assay
Sindbis virus = format: functional; conditions: Vero
Plasmodium falciparum [12] = assay: Resistance index, ratio of IC50 for chloroquine-resistant asexual intraerythrocytic stage of Plasmodium falciparum Dd2 to IC50 for chloroquine-sensitive asexual intraerythrocytic stage of Plasmodium falciparum NF54; format: functional
Human respirovirus 3 = format: functional; conditions: Human respirovirus 3, Vero
[13] = Cytotoxicity against human HEL cells assessed as alteration of normal cell morphology by microscopic analysis; format: cell-based
Human orthopneumovirus = format: functional, cell-based; conditions: human respiratory syncytial virus, HeLa
Plasmodium falciparum [14] = assay: microbe, parasite or virus in culture; conditions: NF54
Human alphaherpesvirus 1 [15] = format: functional, cell-based; conditions: Human alphaherpesvirus 1, KOS, HEL; remark: listed apart in the source
[16] = system: Vesicular stomatitis virus; assay: microbe, parasite or virus in culture; conditions: HeLa
Human betaherpesvirus 5 [17] = format: functional, cell-based; conditions: Human betaherpesvirus 5, AD169, HEL
Influenza A virus [18] = assay: microbe, parasite or virus in culture; conditions: H3N2, MDCK
Influenza B virus = assay: microbe, parasite or virus in culture; conditions: MDCK
[19] = Selectivity index, ratio of IC50 for human HeLa cells to IC50 for chloroquine-sensitive asexual intraerythrocytic stage of Plasmodium falciparum NF54; format: toxicity, cell-based; conditions: read-out: Ratio IC50
[20] = system: Vesicular stomatitis virus; assay: microbe, parasite or virus in culture; conditions: HEL
Coxsackievirus [21] = format: functional, cell-based; conditions: B4, HeLa
Human betaherpesvirus 5 [22] = format: functional, cell-based; conditions: Human betaherpesvirus 5, Davis, HEL
Plasmodium falciparum [23] = assay: microbe, parasite or virus in culture; conditions: Dd2
unidentified adenovirus = format: functional, cell-based; conditions: HEL
Vaccinia virus = assay: microbe, parasite or virus in culture; conditions: Orthopoxvirus vaccinia, HEL
Human alphaherpesvirus 3 [24] = format: functional, cell-based; conditions: Human alphaherpesvirus 3, 07-1, HEL

SMILES | EC50 (Punta Toro virus) | MCC [1] | EC50 (Human alphaherpesvirus 2) | EC50 [2] | MCC [3] | EC50 (Human alphaherpesvirus 1 [4]) | IC50 (HeLa) | IC50 (CCRF-CEM) | EC50 (Human alphaherpesvirus 3 [5]) | IC50 (L1210) | CC50 [6] | EC50 (Coxsackievirus [7]) | selectivity ratio [8] | EC50 (Influenza A virus [9]) | MCC [10] | CC50 [11] | EC50 (Sindbis virus) | Ratio IC50 (Plasmodium falciparum [12]) | EC50 (Human respirovirus 3) | MCC [13] | also measured
CSc1nc(NCCCNc2ccnc3cc(Cl)ccc23)c(C#N)c(-c2ccccc2)n1 | > 20 µM | 100 µM | > 4 µM | > 20 µM | 20 µM | > 4 µM | 11 µM | 4.7 µM | > 4 µM | 4.7 µM | 10.3 µM | > 20 µM | 34.4 | > 4 µM | 100 µM | 43.4 µM | > 20 µM | 2.38 | > 20 µM | 20 µM | EC50 (Human orthopneumovirus): > 20 µM; IC50 (Plasmodium falciparum [14]): 0.134 µM; EC50 (Human alphaherpesvirus 1 [15]): > 4 µM; EC50 [16]: > 20 µM; EC50 (Human betaherpesvirus 5 [17]): > 4 µM; EC50 (Influenza A virus [18]): > 4 µM; EC50 (Influenza B virus): > 4 µM; selectivity ratio [19]: 82.3; EC50 [20]: > 4 µM; EC50 (Coxsackievirus [21]): > 20 µM; EC50 (Human betaherpesvirus 5 [22]): > 4 µM; IC50 (Plasmodium falciparum [23]): 0.319 µM; EC50 (unidentified adenovirus): > 20 µM; EC50 (Vaccinia virus): > 4 µM; EC50 (Human alphaherpesvirus 3 [24]): > 4 µM
CSc1nc(NCCCCNc2ccnc3cc(Cl)ccc23)c(C#N)c(-c2ccccc2)n1 | > 4 µM | 100 µM | > 0.8 µM | > 4 µM | 20 µM | > 0.8 µM | 8.5 µM | 5.2 µM | > 4 µM | 4.4 µM | 10.7 µM | > 4 µM | 28.7 | > 4 µM | 20 µM | 8.2 µM | > 4 µM | 2.71 | > 4 µM | 4 to 20 µM | EC50 (Human orthopneumovirus): > 20 µM; IC50 (Plasmodium falciparum [14]): 0.109 µM; EC50 (Human alphaherpesvirus 1 [15]): > 0.8 µM; EC50 [16]: > 20 µM; EC50 (Human betaherpesvirus 5 [17]): > 4 µM; EC50 (Influenza A virus [18]): > 4 µM; EC50 (Influenza B virus): > 4 µM; selectivity ratio [19]: 78.3; EC50 [20]: > 0.8 µM; EC50 (Coxsackievirus [21]): > 20 µM; EC50 (Human betaherpesvirus 5 [22]): > 4 µM; IC50 (Plasmodium falciparum [23]): 0.295 µM; EC50 (unidentified adenovirus): > 4 µM; EC50 (Vaccinia virus): > 0.8 µM; EC50 (Human alphaherpesvirus 3 [24]): > 4 µM
CSc1nc(-c2ccc([N+](=O)[O-])cc2)c(C#N)c(N2CCN(c3ccnc4cc(Cl)ccc34)CC2)n1 | > 20 µM | > 100 µM | > 100 µM | > 20 µM | > 100 µM | > 100 µM | 228 µM | 156 µM | > 100 µM | 206 µM | > 100 µM | > 20 µM | 23.1 | > 100 µM | 100 µM | > 100 µM | > 20 µM | 0.8 | > 20 µM | ≥ 100 µM | EC50 (Human orthopneumovirus): > 100 µM; IC50 (Plasmodium falciparum [14]): 12.2 µM; EC50 (Human alphaherpesvirus 1 [15]): > 100 µM; EC50 [16]: > 100 µM; EC50 (Human betaherpesvirus 5 [17]): > 100 µM; EC50 (Influenza A virus [18]): > 100 µM; EC50 (Influenza B virus): > 100 µM; selectivity ratio [19]: 18.6; EC50 [20]: > 100 µM; EC50 (Coxsackievirus [21]): > 100 µM; EC50 (Human betaherpesvirus 5 [22]): > 100 µM; IC50 (Plasmodium falciparum [23]): 9.86 µM; EC50 (unidentified adenovirus): > 100 µM; EC50 (Vaccinia virus): > 100 µM; EC50 (Human alphaherpesvirus 3 [24]): > 100 µM
CSc1nc(OCCCNc2ccnc3cc(Cl)ccc23)c(C#N)c(-c2ccccc2)n1 | > 0.8 µM | 4 µM | > 0.8 µM | > 0.8 µM | 4 µM | > 0.8 µM | 3.4 µM | 3.3 µM | > 0.8 µM | 3.9 µM | 2.1 µM | > 0.8 µM | 16.3 | > 0.8 µM | 4 µM | 1.7 µM | > 0.8 µM | 2.34 | > 0.8 µM | 4 µM | EC50 (Human orthopneumovirus): > 0.8 µM; IC50 (Plasmodium falciparum [14]): 0.0888 µM; EC50 (Human alphaherpesvirus 1 [15]): > 0.8 µM; EC50 [16]: > 0.8 µM; EC50 (Human betaherpesvirus 5 [17]): > 0.8 µM; EC50 (Influenza A virus [18]): > 0.8 µM; EC50 (Influenza B virus): > 0.8 µM; selectivity ratio [19]: 38.3; EC50 [20]: > 0.8 µM; EC50 (Coxsackievirus [21]): > 0.8 µM; EC50 (Human betaherpesvirus 5 [22]): > 0.8 µM; IC50 (Plasmodium falciparum [23]): 0.208 µM; EC50 (unidentified adenovirus): > 0.8 µM; EC50 (Vaccinia virus): > 0.8 µM; EC50 (Human alphaherpesvirus 3 [24]): > 0.8 µM
COc1ccc(-c2nc(SC)nc(NCCCCNc3ccnc4cc(Cl)ccc34)c2C#N)cc1 | > 4 µM | 20 µM | > 0.8 µM | > 4 µM | 20 µM | > 0.8 µM | 3.4 µM | 2.7 µM | > 4 µM | 3.2 µM | 10 µM | > 4 µM | 2.2 | > 4 µM | 20 µM | 7.9 µM | > 4 µM | 13.92 | > 4 µM | 4 to 20 µM | EC50 (Human orthopneumovirus): > 4 µM; IC50 (Plasmodium falciparum [14]): 0.11 µM; EC50 (Human alphaherpesvirus 1 [15]): > 0.8 µM; EC50 [16]: > 4 µM; EC50 (Human betaherpesvirus 5 [17]): > 4 µM; EC50 (Influenza A virus [18]): > 4 µM; EC50 (Influenza B virus): > 4 µM; selectivity ratio [19]: 30.9; EC50 [20]: > 0.8 µM; EC50 (Coxsackievirus [21]): > 4 µM; EC50 (Human betaherpesvirus 5 [22]): > 4 µM; IC50 (Plasmodium falciparum [23]): 1.53 µM; EC50 (unidentified adenovirus): > 4 µM; EC50 (Vaccinia virus): > 0.8 µM; EC50 (Human alphaherpesvirus 3 [24]): > 4 µM
